From patent US4522815A, “Anthracycline glycosides” (priority 1982, dated 1985)
In brackets after ≈: the same amount, converted by molar mass. Read-outs that look alike come from different tables or passages of the source.

Assays:
[1] = system: HeLa cells; assay: Colony inhibition test against HeLa cells in vitro (cloning efficiency), treatment for 24 hrs; format: cell-based; conditions: for activity at 0.0062 µg/mL: 6.2 ng/ml; for activity at 0.025 µg/mL: 25 ng/ml; for IC50: HeLa colony inhibition; for activity at 0.0125 µg/mL: 12.5 ng/ml
[2] = system: ascitic P388 leukemia; assay: Antitumor activity against ascitic P388 leukemia in CDF-1 mice, treatment i.p. on day 1; format: in vivo
Description: The primary screening […] was carried out in CDF-1 mice bearing ascitic P388 leukemia (10^6 cells/mouse). Both IIa and IIc were suspended in 10%. Tween 80 and injected intraperitoneally.
Results of the primary screening "in vivo" carried out in CDF-1 mice bearing P388 ascitic leukemia and treated i.p. the day after tumor transplantation, are reported in Table 5.
Antitumor activity against ascitic P388 leukekemia.
(§1) Treatment i.p. on day 1.
^a median survival time; % over untreated controls
^b long term survivors (≥ 60 days)
^c evaluated on the basis of autoptic findings on dead mice
(§2) ^d data of two experiments (range)
^e date of three experiments (range)
Antitumor activity of Ib and Id against ascitic P388
as §1

[3] = system: Gross leukemia; assay: Antitumor activity against i.v. transplanted Gross leukemia in C3H/Me mice, treatment i.v. on day 1; format: in vivo; conditions: Table 6
Excerpt: (§3) Results of studies performed in C3H/Me mice carrying i.v. transplanted Gross leukemia and treated i.v. the day after tumor transplantation, are reported in Table 6. […] The compounds Ib and Id were further investigated for oral activity on Gross leukemic transplanted i.v., in comparison with DNR, DX given i.v. and 4-dm DNR given oral route.
Antitumor activity against i.v. Gross leukemia.
Treatment i.v. on day 1.

[4] = system: Gross leukemia; assay: Oral activity against i.v. transplanted Gross leukemia (i.v. comparators); format: in vivo, C3H/Me mice; conditions: Table 7, i.v. +1; for Toxic deaths: two experiments; for T/C %, median survival time: two experiments (range)
Excerpt: as §3
Oral activity of Ib and Id against Gross leukemia
^a days after transplantation
as §2

[5] = Homo sapiens, HeLa, Table 1, 24 hrs, read-out: No of colonies, % of untreated controls
[6] = Table 2, 30 mg/kg i.p. day 1, two experiments
[7] = Homo sapiens, HeLa, 24 h, read-out: No of colonies, % of untreated controls, Table 1, 24 hrs
[8] = Homo sapiens, HeLa, 24 h, read-out: No of colonies, % of untreated controls, Table 3, 24 hrs
[9] = Table 2, 4.4 mg/kg i.p. day 1, two experiments
[10] = Table 2, 6.6 mg/kg i.p. day 1, two (DNR) or three (DX) experiments
[11] = Table 2, 10 mg/kg i.p. day 1, three experiments
[12] = Table 5, 4.4 mg/kg i.p. day 1, DNR: two experiments

**Q.** Which results are given for COc1cccc2c1C(=O)c1c(O)c3c(c(O)c1C2=O)C[C@@](O)(C(=O)CO)C[C@@H]3O[C@H]1C=C[C@@H](O)[C@H](C)O1 [Compound IIc, 7-0-(2,3,6-trideoxy-α-L-erythro-hex-2-enopyranosyl)-adriamycinone]?
**A.** times less cytotoxic than DX ([1]; HeLa cells cloning efficiency, vs DX): about 5 times; activity at 0.0015 µg/mL ([1]; Homo sapiens, HeLa, Table 1, 1.5 ng/ml, 24 hrs, read-out: No of colonies, % of untreated controls): 86%; activity at 0.0062 µg/mL [1, 5]: 68%; activity at 0.025 µg/mL [1, 5]: 65%; activity at 0.1 µg/mL ([1]; Homo sapiens, HeLa, Table 1, 100 ng/ml, 24 hrs, read-out: No of colonies, % of untreated controls): 33%; activity at 0.4 µg/mL ([1]; Homo sapiens, HeLa, Table 1, 400 ng/ml, 24 hrs, read-out: No of colonies, % of untreated controls): 4%; IC50 ([1]; Homo sapiens, Table 1, 24 hrs, read-out: ID50 (the source's name)): ~0.05 µg/mL (≈ 0.095 µM); LTS, long term survivors (≥ 60 days) ([2]; Table 2, 17.6 mg/kg i.p. day 1): 0/8; T/C, median survival time; % over untreated controls ([2]; Table 2, 17.6 mg/kg i.p. day 1): 118%; Toxic deaths (autoptic findings on dead mice) ([2]; Table 2, 17.6 mg/kg i.p. day 1): 0/8; LTS, long term survivors (≥ 60 days) ([2]; Table 2, 23 mg/kg i.p. day 1): 0/7; T/C, median survival time; % over untreated controls ([2]; Table 2, 23 mg/kg i.p. day 1): 127%; Toxic deaths (autoptic findings on dead mice) ([2]; Table 2, 23 mg/kg i.p. day 1): 0/7; LTS, long term survivors (≥ 60 days) [2, 6]: 0/17; Toxic deaths (autoptic findings on dead mice) [2, 6]: 0/17; T/C, median survival time; % over untreated controls ([2]; Table 2, 30 mg/kg i.p. day 1, two experiments (range)): 125-136%; LTS, long term survivors (≥ 60 days) ([2]; Table 2, 45 mg/kg i.p. day 1): 0/10; T/C, median survival time; % over untreated controls ([2]; Table 2, 45 mg/kg i.p. day 1): 130%; Toxic deaths (autoptic findings on dead mice) ([2]; Table 2, 45 mg/kg i.p. day 1): 0/10; LTS, long term survivors (≥ 60 days) ([2]; Table 2, 67.5 mg/kg i.p. day 1): 0/10; T/C, median survival time; % over untreated controls ([2]; Table 2, 67.5 mg/kg i.p. day 1): 140%; Toxic deaths (autoptic findings on dead mice) ([2]; Table 2, 67.5 mg/kg i.p. day 1): 0/10; LTS, long term survivors (≥ 60 days) ([2]; Table 2, 100 mg/kg i.p. day 1): 0/7; T/C, median survival time; % over untreated controls ([2]; Table 2, 100 mg/kg i.p. day 1): 150%; Toxic deaths (autoptic findings on dead mice) ([2]; Table 2, 100 mg/kg i.p. day 1): 0/7; toxicity and potency vs parent drugs DNR and DX ([2]; ascitic P388, i.p.): less toxic and potent than the parent drugs DNR and DX; antitumor activity on P388 ascitic leukemia ([2]; i.p. day 1, IIa: two doses tested incl. Mx TD): a certain antitumor activity, which is lower than that of DX

**Q.** Which IC50 ([1]; Homo sapiens, HeLa, 24 h, read-out: ID50, Table 1, 24 hrs) does the source give for COc1cccc2c1C(=O)c1c(O)c3c(c(O)c1C2=O)C[C@@](O)(C(=O)CO)C[C@@H]3O[C@H]1C[C@H](N)[C@H](O)[C@H](C)O1 [DX, doxorubicin, reference compound] here?
**A.** Its IC50 is roughly 0.01 µg/mL (≈ 0.0184 µM).

**Q.** What about the IC50 ([1]; Homo sapiens, HeLa, 24 h, read-out: ID50, Table 3, 24 hrs) of the same compound?
**A.** Its IC50 is roughly 0.0075 µg/mL (≈ 0.0138 µM).

**Q.** And the activity at 0.0062 µg/mL [1, 7]?
**A.** The activity at 0.0062 µg/mL was 69%.

**Q.** And the activity at 0.0125 µg/mL [1, 7]?
**A.** The activity at 0.0125 µg/mL was 40%.

**Q.** What about the activity at 0.025 µg/mL [1, 7] of the same compound?
**A.** The activity at 0.025 µg/mL was 24%.

**Q.** And the activity at 0.0062 µg/mL [1, 8]?
**A.** Its activity at 0.0062 µg/mL is 59%.

**Q.** What about the activity at 0.0125 µg/mL [1, 8] of the same compound?
**A.** Its activity at 0.0125 µg/mL is 28%.

**Q.** What about the activity at 0.025 µg/mL [1, 8] of the same compound?
**A.** Its activity at 0.025 µg/mL is 0%.

**Q.** And the “T/C, median survival time; % over untreated controls” value (“T/C, median survival time; %” for short) ([2]; Table 2, 4.4 mg/kg i.p. day 1, data of two experiments (range))?
**A.** Its value is 220-227%.

**Q.** And the “LTS, long term survivors (≥ 60 days)” value [2, 9]?
**A.** Its value is 2/18.

**Q.** What about the “Toxic deaths (autoptic findings on dead mice)” value [2, 9] of the same compound?
**A.** Its value is 0/18.

**Q.** And the “T/C, median survival time; %” value ([2]; Table 2, 6.6 mg/kg i.p. day 1, range of two (DNR) or three (DX) experiments)?
**A.** The value was 227-305%.

**Q.** And the “LTS, long term survivors (≥ 60 days)” value [2, 10]?
**A.** The value was 2/26.

**Q.** What about the “Toxic deaths (autoptic findings on dead mice)” value [2, 10] of the same compound?
**A.** The value was 0/26.

**Q.** What about the “LTS, long term survivors (≥ 60 days)” value [2, 11] of the same compound?
**A.** Its value is 7/26.

**Q.** What about the “Toxic deaths (autoptic findings on dead mice)” value [2, 11] of the same compound?
**A.** The value was 3/26.

**Q.** What about the “LTS, long term survivors (≥ 60 days)” value [2, 12] of the same compound?
**A.** Its value is 1/10.

**Q.** What about the “Toxic deaths (autoptic findings on dead mice)” value [2, 12] of the same compound?
**A.** The value was 0/10.

**Q.** And the “T/C, median survival time; %” value ([2]; Table 5, 4.4 mg/kg i.p. day 1, DNR: two experiments (range))?
**A.** Its value is 220%.

**Q.** And the “LTS, long term survivors (≥ 60 days)” value ([2]; Table 5, 6.6 mg/kg i.p. day 1)?
**A.** Its value is 0/10.

**Q.** What about the “T/C, median survival time; %” value ([2]; Table 5, 6.6 mg/kg i.p. day 1) of the same compound?
**A.** Its value is 305%.

**Q.** And the “Toxic deaths (autoptic findings on dead mice)” value ([2]; Table 5, 6.6 mg/kg i.p. day 1)?
**A.** Its value is 0/10.

**Q.** And the “LTS, long term survivors (≥ 60 days)” value ([2]; Table 5, 10 mg/kg i.p. day 1)?
**A.** Its value is 5/10.

**Q.** What about the “T/C, median survival time; %” value ([2]; Table 5, 10 mg/kg i.p. day 1) of the same compound?
**A.** Its value is greater than 610%.

**Q.** What about the “Toxic deaths (autoptic findings on dead mice)” value ([2]; Table 5, 10 mg/kg i.p. day 1) of the same compound?
**A.** Its value is 0/10.

**Q.** What about the “T/C, median survival time; %” value ([3]; 10 mg/kg i.v. day 1) of the same compound?
**A.** Its value is 171%.

**Q.** What about the Toxic deaths ([3]; 10 mg/kg i.v. day 1) of the same compound?
**A.** The Toxic deaths was 0/10.

**Q.** And the “T/C, median survival time; %” value ([3]; 13 mg/kg i.v. day 1)?
**A.** The value was 200%.

**Q.** And the Toxic deaths ([3]; 13 mg/kg i.v. day 1)?
**A.** Its Toxic deaths is 0/10.

**Q.** And the “T/C, median survival time; %” value ([3]; 16.9 mg/kg i.v. day 1)?
**A.** The value was 207%.

**Q.** And the Toxic deaths ([3]; 16.9 mg/kg i.v. day 1)?
**A.** The Toxic deaths was 3/10.

**Q.** And the Toxic deaths ([4]; 10 mg/kg)?
**A.** Its Toxic deaths is 1/20.

**Q.** And the “T/C %, median survival time” value ([4]; 10 mg/kg)?
**A.** The value was 171-171%.

**Q.** What about the Toxic deaths ([4]; 13 mg/kg) of the same compound?
**A.** The Toxic deaths was 1/20.

**Q.** And the “T/C %, median survival time” value ([4]; 13 mg/kg)?
**A.** The value was 200-200%.

**Q.** And the Toxic deaths ([4]; 16.9 mg/kg)?
**A.** Its Toxic deaths is 3/13.

**Q.** What about the “T/C %, median survival time” value ([4]; 16.9 mg/kg) of the same compound?
**A.** The value was 200-207%.
